According to ChEMBL document CHEMBL3885881, “DrugMatrix”:

Organism: Rattus norvegicus
Test: DrugMatrix - Regimen: Daily Repeat
Assay type: toxicity, organism-based, Sprague-Dawley
Set-up: regimen Daily Repeat, gender Male, age 6-8 weeks
Conditions: in vivo, po, route oral GAVAGE, vehicle .5 % CMC; for BASOPHIL / EOSINOPHIL / ERYTHROCYTE COUNT / HEMATOCRIT / HEMOGLOBIN / LEUKOCYTE COUNT / LYMPHOCYTE / MEAN CORPUSCULAR HEMOGLOBIN / MEAN CORPUSCULAR HEMOGLOBIN CONCENTRATION / MEAN CORPUSCULAR VOLUME / MONOCYTE / NEUTROPHIL / PLATELET COUNT: tissue Blood; for ALANINE AMINOTRANSFERASE / ALBUMIN / ALKALINE PHOSPHATASE / ASPARTATE AMINOTRANSFERASE / BLOOD UREA NITROGEN / CHLORIDE / CHOLESTEROL / CREATINE PHOSPHOKINASE / CREATININE / GLUCOSE / PHOSPHORUS / POTASSIUM / SODIUM / TOTAL PROTEIN: tissue Plasma
[1] = 0 mg/kg, 72 h, dose level Control, time 3 day
[2] = 0 mg/kg, 120 h, dose level Control, time 5 day
[3] = 30 mg/kg, 72 h, dose level Low, time 3 day
[4] = 30 mg/kg, 120 h, dose level Low, time 5 day
[5] = 1750 mg/kg, 72 h, dose level High, time 3 day
[6] = 1750 mg/kg, 120 h, dose level High, time 5 day

CC(=O)Oc1ccc(C(c2ccc(OC(C)=O)cc2)c2ccccn2)cc1 [BISACODYL]
BASOPHIL [1]: 0% | EOSINOPHIL [1]: 0.33% | ERYTHROCYTE COUNT [1]: 6.03 x10E6/uL | HEMATOCRIT [1]: 38.8% | HEMOGLOBIN [1]: 14.26 G/DL | LEUKOCYTE COUNT [1]: 10.64 x10E3/uL | LYMPHOCYTE [1]: 83.33% | MEAN CORPUSCULAR HEMOGLOBIN [1]: 23.64 pg | MEAN CORPUSCULAR HEMOGLOBIN CONCENTRATION [1]: 36.74 G/DL | MEAN CORPUSCULAR VOLUME [1]: 64.32 fL | MONOCYTE [1]: 3.33% | NEUTROPHIL [1]: 13% | PLATELET COUNT [1]: 1264.4 x10E3/uL | ALANINE AMINOTRANSFERASE [1]: 38.83 u/L | ALBUMIN [1]: 3.55 G/DL | ALKALINE PHOSPHATASE [1]: 368.33 u/L | ASPARTATE AMINOTRANSFERASE [1]: 66.17 u/L | BLOOD UREA NITROGEN [1]: 15.67 mg/dL | CHLORIDE [1]: 104.33 MEQ/L | CHOLESTEROL [1]: 76.5 mg/dL | CREATINE PHOSPHOKINASE [1]: 166.83 u/L | CREATININE [1]: 0.52 mg/dL | GLUCOSE [1]: 173.17 mg/dL | PHOSPHORUS [1]: 11.68 mg/dL | POTASSIUM [1]: 6.43 MEQ/L | SODIUM [1]: 149.5 MEQ/L | TOTAL PROTEIN [1]: 5.93 G/DL | BASOPHIL [2]: 0% | EOSINOPHIL [2]: 0% | ERYTHROCYTE COUNT [2]: 5.88 x10E6/uL | HEMATOCRIT [2]: 37.87% | HEMOGLOBIN [2]: 14.48 G/DL | LEUKOCYTE COUNT [2]: 12.43 x10E3/uL | LYMPHOCYTE [2]: 84.17% | MEAN CORPUSCULAR HEMOGLOBIN [2]: 24.65 pg | MEAN CORPUSCULAR HEMOGLOBIN CONCENTRATION [2]: 38.25 G/DL | MEAN CORPUSCULAR VOLUME [2]: 64.47 fL | MONOCYTE [2]: 4.33% | NEUTROPHIL [2]: 11.5% | PLATELET COUNT [2]: 1182.33 x10E3/uL | ALANINE AMINOTRANSFERASE [2]: 38.67 u/L | ALBUMIN [2]: 3.55 G/DL | ALKALINE PHOSPHATASE [2]: 342.5 u/L | ASPARTATE AMINOTRANSFERASE [2]: 63.33 u/L | BLOOD UREA NITROGEN [2]: 15.5 mg/dL | CHLORIDE [2]: 104 MEQ/L | CHOLESTEROL [2]: 75.5 mg/dL | CREATINE PHOSPHOKINASE [2]: 142.5 u/L | CREATININE [2]: 0.62 mg/dL | GLUCOSE [2]: 165.17 mg/dL | PHOSPHORUS [2]: 10.87 mg/dL | POTASSIUM [2]: 6.85 MEQ/L | SODIUM [2]: 150.17 MEQ/L | TOTAL PROTEIN [2]: 5.93 G/DL | BASOPHIL [3]: 0% | EOSINOPHIL [3]: 0% | ERYTHROCYTE COUNT [3]: 6.9 x10E6/uL | HEMATOCRIT [3]: 44.1% | HEMOGLOBIN [3]: 16.25 G/DL | LEUKOCYTE COUNT [3]: 9.75 x10E3/uL | LYMPHOCYTE [3]: 83% | MEAN CORPUSCULAR HEMOGLOBIN [3]: 23.55 pg | MEAN CORPUSCULAR HEMOGLOBIN CONCENTRATION [3]: 36.85 G/DL | MEAN CORPUSCULAR VOLUME [3]: 63.85 fL | MONOCYTE [3]: 4% | NEUTROPHIL [3]: 13% | PLATELET COUNT [3]: 1188.5 x10E3/uL | ALANINE AMINOTRANSFERASE [3]: 37.67 u/L | ALBUMIN [3]: 3.67 G/DL | ALKALINE PHOSPHATASE [3]: 281 u/L | ASPARTATE AMINOTRANSFERASE [3]: 63 u/L | BLOOD UREA NITROGEN [3]: 17 mg/dL | CHLORIDE [3]: 107 MEQ/L | CHOLESTEROL [3]: 72 mg/dL | CREATINE PHOSPHOKINASE [3]: 177 u/L | CREATININE [3]: 0.53 mg/dL | GLUCOSE [3]: 181 mg/dL | PHOSPHORUS [3]: 12.17 mg/dL | POTASSIUM [3]: 7.3 MEQ/L | SODIUM [3]: 152 MEQ/L | TOTAL PROTEIN [3]: 6.1 G/DL | BASOPHIL [4]: 0% | EOSINOPHIL [4]: 0.67% | ERYTHROCYTE COUNT [4]: 6.91 x10E6/uL | HEMATOCRIT [4]: 43.53% | HEMOGLOBIN [4]: 16.47 G/DL | LEUKOCYTE COUNT [4]: 13.9 x10E3/uL | LYMPHOCYTE [4]: 85% | MEAN CORPUSCULAR HEMOGLOBIN [4]: 23.9 pg | MEAN CORPUSCULAR HEMOGLOBIN CONCENTRATION [4]: 37.97 G/DL | MEAN CORPUSCULAR VOLUME [4]: 63 fL | MONOCYTE [4]: 3.33% | NEUTROPHIL [4]: 11% | PLATELET COUNT [4]: 1208 x10E3/uL | ALANINE AMINOTRANSFERASE [4]: 36.67 u/L | ALBUMIN [4]: 3.53 G/DL | ALKALINE PHOSPHATASE [4]: 306.33 u/L | ASPARTATE AMINOTRANSFERASE [4]: 66 u/L | BLOOD UREA NITROGEN [4]: 19 mg/dL | CHLORIDE [4]: 106.33 MEQ/L | CHOLESTEROL [4]: 70.33 mg/dL | CREATINE PHOSPHOKINASE [4]: 149.33 u/L | CREATININE [4]: 0.53 mg/dL | GLUCOSE [4]: 193.33 mg/dL | PHOSPHORUS [4]: 12.23 mg/dL | POTASSIUM [4]: 6.8 MEQ/L | SODIUM [4]: 151.67 MEQ/L | TOTAL PROTEIN [4]: 5.7 G/DL | BASOPHIL [5]: 0% | EOSINOPHIL [5]: 0% | ERYTHROCYTE COUNT [5]: 7.45 x10E6/uL | HEMATOCRIT [5]: 45.8% | HEMOGLOBIN [5]: 17.43 G/DL | LEUKOCYTE COUNT [5]: 12.3 x10E3/uL | LYMPHOCYTE [5]: 35.67% | MEAN CORPUSCULAR HEMOGLOBIN [5]: 23.5 pg | MEAN CORPUSCULAR HEMOGLOBIN CONCENTRATION [5]: 38.13 G/DL | MEAN CORPUSCULAR VOLUME [5]: 61.47 fL | MONOCYTE [5]: 13.67% | NEUTROPHIL [5]: 50.67% | PLATELET COUNT [5]: 1194 x10E3/uL | ALANINE AMINOTRANSFERASE [5]: 34 u/L | ALBUMIN [5]: 4.3 G/DL | ALKALINE PHOSPHATASE [5]: 166 u/L | ASPARTATE AMINOTRANSFERASE [5]: 53 u/L | BLOOD UREA NITROGEN [5]: 64 mg/dL | CHLORIDE [5]: 84 MEQ/L | CHOLESTEROL [5]: 44 mg/dL | CREATINE PHOSPHOKINASE [5]: 148 u/L | CREATININE [5]: 0.7 mg/dL | GLUCOSE [5]: 165 mg/dL | PHOSPHORUS [5]: 9.4 mg/dL | POTASSIUM [5]: 8.2 MEQ/L | SODIUM [5]: 131 MEQ/L | TOTAL PROTEIN [5]: 7.9 G/DL | BASOPHIL [6]: 0% | EOSINOPHIL [6]: 0% | ERYTHROCYTE COUNT [6]: 7.22 x10E6/uL | HEMATOCRIT [6]: 44.95% | HEMOGLOBIN [6]: 16.55 G/DL | LEUKOCYTE COUNT [6]: 14.05 x10E3/uL | LYMPHOCYTE [6]: 38% | MEAN CORPUSCULAR HEMOGLOBIN [6]: 22.95 pg | MEAN CORPUSCULAR HEMOGLOBIN CONCENTRATION [6]: 36.8 G/DL | MEAN CORPUSCULAR VOLUME [6]: 62.3 fL | MONOCYTE [6]: 6.5% | NEUTROPHIL [6]: 55.5% | PLATELET COUNT [6]: 1469 x10E3/uL | ALANINE AMINOTRANSFERASE [6]: 29 u/L | ALBUMIN [6]: 3.9 G/DL | ALKALINE PHOSPHATASE [6]: 258 u/L | ASPARTATE AMINOTRANSFERASE [6]: 36 u/L | BLOOD UREA NITROGEN [6]: 37 mg/dL | CHLORIDE [6]: 102.5 MEQ/L | CHOLESTEROL [6]: 71 mg/dL | CREATINE PHOSPHOKINASE [6]: 190 u/L | CREATININE [6]: 0.7 mg/dL | GLUCOSE [6]: 183 mg/dL | PHOSPHORUS [6]: 12.1 mg/dL | POTASSIUM [6]: 8 MEQ/L | SODIUM [6]: 147.5 MEQ/L | TOTAL PROTEIN [6]: 7.6 G/DL
